In article PMC9094701, “Multiple-Allele MHC Class II Epitope Engineering by a Molecular Dynamics-Based Evolution Protocol” (Frontiers in Immunology, 2022):

What was measured:
IFNγ-producing cells = assay: IFNγ ELISpot of splenocytes from immunized mice; format: in vivo, C57BL/6 mice; settings: for specific IFNγ-producing cells: C57BL/6 mice, two s.c. doses of 50 μg peptide with AddaVax, splenocytes 15 days after last dose, restimulated with the same peptide 18 h, ELISpot, mean; for Experimental rank: rank from the ex vivo experiments
[1] = test system: MHC II alleles DRB1*01:01, DRB1*03:01, DRB1*04:01 and DRB1*15:01; assay: Multiple-allele REVEAL score; format: binding, human; settings: average of the scores of each allele; Figure 4A
Description: The 18 designed candidates and the additional controls were synthesized and analysed using the ProImmune REVEAL® MHC-peptide binding assay to determine their level of binding to the MHC II alleles DRB1*01:01, DRB1*03:01, DRB1*04:01 and DRB1*15:01. A multiple-allele score was measured to evaluate if the peptides improved toward multiple alleles ( Figure 4A ). Of the 18 peptides, the peptide […] could not be synthesized by the Prospector PEPscreen® technology. […] None of the peptides, including the controls, were able to trigger a signal for the allele DRB1*03:01 (see Figure 4A ). […]
A gold-standard method of rate binding experiments against the MHC II alleles was performed with the Proimmune REVEAL® binding assay. The method uses antibody-labelled peptides that emit a signal if native conformations of the complexes are detected. […]
For the single-allele binding optimization phase, 17 peptides selected were assayed together with the controls against the DRB1*01:01 allele. For the multiple-allele engineering phase, 18 P. vivax engineered epitopes were evaluated for the MHC II alleles DRB1*01:01, DRB1*03:01, DRB1*04:01 and DRB1*15:01. A multiple-allele score was calculated by averaging the scores of each allele, and by weighting each allele based on the their frequencies in the world population. […]

[2] = molecular target: MHC II (HLA) allele DRB1*01:01 (Homo sapiens, UniProt P01903+P01911, A100R/D57E/F55L/F60I/F76Y/I96L/L162R/M171V/P40L/Q125E/R42F/V115G/Y59C); assay: ProImmune REVEAL MHC-peptide binding assay; settings: score 0-100 by comparison with a control T-cell epitope, 0 and 24 hours, Figure 2E
[3] = Influenza sequences and PADRE, Table S11

| Sequence | specific IFNγ-producing cells (IFNγ-producing cells) [SFU/10^6 cells] | Experimental rank (IFNγ-producing cells; P. vivax sequences, Table S10) | Multiple-allele REVEAL score, in words [1] | Experimental rank (IFNγ-producing cells; [3]) | REVEAL binding score, performance in words [2] |
| --- | --- | --- | --- | --- | --- |
| DYDVVYWKPLAGIYK | 228 | 2 |  |  |  |
| DYTVVYLKPLAGYDH | 127 | 4 | superior to the PADRE epitope |  |  |
| AKFVAAWTLKAAA [reference compound] |  |  |  | 1 |  |
| DYDVVYLKPLAGMYK [reference compound] | 295 | 1 |  |  |  |
| YPKYVKQNTLKLAT [Influenza A virus peptide from the Hemagglutinin antigen, reference compound] | 463 |  |  | 3 |  |
| YSKYKKQNTLKAAT | 473 |  |  | 2 | much superior to the original peptide sequence, and even to the PADRE control |
| DYTVVYLKPLAGYDN | 54 | 5 |  |  |  |
| VYDVVYLKPLAGCYK | 145 | 3 |  |  |  |
